Source: PMC3938192 (ACS chemical biology, 2013)
Positions count from the first letter of the chain named.

Tests used:
Assay type in all cases: cell-based
Venus-Pkd1-WT = target: T1, Venus-Pkd1-WT (Mus musculus, UniProt Q62101); assay: Puncta formation of Venus-Pkd1-WT in neurons; conditions: 1 µM, one hour of inhibitor treatment
T1 sequence (Q62101 1-918): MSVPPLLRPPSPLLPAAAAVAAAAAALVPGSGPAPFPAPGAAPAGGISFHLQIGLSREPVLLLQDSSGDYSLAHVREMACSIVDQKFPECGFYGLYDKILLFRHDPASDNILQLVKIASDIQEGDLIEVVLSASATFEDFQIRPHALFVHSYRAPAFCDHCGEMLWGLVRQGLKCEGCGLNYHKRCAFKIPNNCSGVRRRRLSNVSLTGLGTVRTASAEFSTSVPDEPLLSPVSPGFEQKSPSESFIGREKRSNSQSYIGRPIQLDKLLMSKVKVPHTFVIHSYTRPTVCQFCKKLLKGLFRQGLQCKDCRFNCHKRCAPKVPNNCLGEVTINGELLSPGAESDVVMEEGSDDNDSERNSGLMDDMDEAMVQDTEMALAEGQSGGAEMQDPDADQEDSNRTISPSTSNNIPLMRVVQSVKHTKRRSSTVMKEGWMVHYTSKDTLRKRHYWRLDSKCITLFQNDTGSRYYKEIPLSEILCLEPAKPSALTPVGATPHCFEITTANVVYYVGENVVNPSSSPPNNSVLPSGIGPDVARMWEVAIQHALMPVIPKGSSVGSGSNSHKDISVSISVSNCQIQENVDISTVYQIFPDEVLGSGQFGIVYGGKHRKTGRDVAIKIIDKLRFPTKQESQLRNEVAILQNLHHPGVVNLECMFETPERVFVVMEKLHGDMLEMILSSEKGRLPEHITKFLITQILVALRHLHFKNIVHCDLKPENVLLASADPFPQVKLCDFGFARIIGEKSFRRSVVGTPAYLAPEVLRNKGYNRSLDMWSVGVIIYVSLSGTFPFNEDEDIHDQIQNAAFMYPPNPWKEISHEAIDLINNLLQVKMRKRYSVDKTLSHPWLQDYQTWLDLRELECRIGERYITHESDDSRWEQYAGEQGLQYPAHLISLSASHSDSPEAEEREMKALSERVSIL

Venus-Pkd1-AS2 = target: T2, Venus-Pkd1-AS2 (Mus musculus, UniProt Q62101, M665A); assay: Puncta formation of Venus-Pkd1-AS2 in neurons; conditions: 1 µM, one hour of inhibitor treatment
T2 sequence (Q62101 1-918 M665A): T1 sequence (Q62101 1-918) with M665A

Pkd1-AS2 (M665A) = target: T3, Pkd1-AS2 (M665A) (Mus musculus, UniProt Q62101, M665A); assay: Pkd1-AS2 autophosphorylation in transfected HEK 293T cells; conditions: 1 µM
T3 sequence (Q62101 1-918 M665A): T1 sequence (Q62101 1-918) with M665A

Pkd1-WT = target: T4, Pkd1-WT (Mus musculus, UniProt Q62101); assay: Pkd1-WT autophosphorylation in transfected HEK 293T cells; conditions: 1 µM
T4 sequence (Q62101 1-918): T1 sequence (Q62101 1-918)

CC(C)(C)n1nc(-c2cccc3ccccc23)c2c(N)ncnc21 [1NA-PP1]
puncta formation, Venus-Pkd1-WT neurons (Venus-Pkd1-WT): unaffected
puncta formation, Venus-Pkd1-AS2 neurons (Venus-Pkd1-AS2): forming discrete puncta
effect on autophosphorylation by Pkd1-AS2 (Pkd1-AS2 (M665A)): completely abrogates autophosphorylation
effect on autophosphorylation by Pkd1-WT (Pkd1-WT): but not the wild type kinase
